Active and inactive are the calls of the source.
Legend:
[1] = target: T1, E3 ubiquitin-protein ligase XIAP (Homo sapiens, UniProt P98170); assay: Counter Screen using XIAP-Bir3 for Chemical Antagonists of Bir1/2 domains of IAP-family anti-apoptotic proteins. [Related pubchem assays (depositor defined):AID1018, AID1449, AID1514, AID1638, AID1749, AID1750, AID488957, AID488963]
[2] = target: T1, E3 ubiquitin-protein ligase XIAP; assay: XIAP antagonists, biochemical, IAP family, fluorescence polarization (AID 1018); format: functional
[3] = target: G-protein coupled receptor 55 (Homo sapiens, UniProt Q9Y2T6); assay: GPR55 antagonists blocking LPI-driven arrestin recruitment, primary screen, imaging, U2OS, beta-arrestin-GFP, LPI agonist (AID 2013); format: functional;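 also: antagonist potency measured as reduced agonist-driven arrestin aggregation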
Sequence of G-protein coupled receptor 55 (Q9Y2T6 whole entry): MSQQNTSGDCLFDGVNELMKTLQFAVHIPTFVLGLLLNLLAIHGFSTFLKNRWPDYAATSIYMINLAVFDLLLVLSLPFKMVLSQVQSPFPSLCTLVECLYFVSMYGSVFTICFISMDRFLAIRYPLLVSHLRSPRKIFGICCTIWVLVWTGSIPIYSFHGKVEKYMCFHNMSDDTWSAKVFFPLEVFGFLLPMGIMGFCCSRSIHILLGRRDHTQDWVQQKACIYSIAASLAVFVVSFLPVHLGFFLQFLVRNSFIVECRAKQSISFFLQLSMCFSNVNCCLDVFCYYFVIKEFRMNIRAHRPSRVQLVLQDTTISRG

[4] = test system: Streptococcus sp. 'group A'; assay: growth inhibition of control SK(-) GAS strain, dose response, counter-screen for streptokinase expression inhibitor project, luminescence, kanamycin, BacTiterGlo, confirmation (AID 1900); format: functional, organism-based
[5] = microbe, parasite or virus in culture; format: functional; details: Mycobacterium tuberculosis
[6] = test system: Streptococcus; assay: Group A Streptococcus viability loss, dose response, counter-screen for streptokinase expression inhibitor project, luminescence, BacTiterGlo (AID 1915); format: functional, organism-based;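 also: potency for reduction of bacterial viability or growth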
[7] = THP-1 cell cytotoxicity, dose response, cytotoxicity control for non-replicating M. tuberculosis project (AID 489025); format: functional
[8] = HepG2 cell cytotoxicity, dose response, cytotoxicity control for non-replicating M. tuberculosis project (AID 489018); format: functional; details: Mycobacterium tuberculosis
[9] = Vero E6 cell cytotoxicity, dose response, cytotoxicity control for non-replicating M. tuberculosis project, secondary assay (AID 492998); format: functional, VeroE6; details: Vero C1008
[10] = target: Nonstructural protein 1 (Influenza A virus, UniProt Q194T2); format: functional, Influenza A virus (A/California/07/2009(H1N1))
Sequence of Nonstructural protein 1 (Q194T2 whole entry): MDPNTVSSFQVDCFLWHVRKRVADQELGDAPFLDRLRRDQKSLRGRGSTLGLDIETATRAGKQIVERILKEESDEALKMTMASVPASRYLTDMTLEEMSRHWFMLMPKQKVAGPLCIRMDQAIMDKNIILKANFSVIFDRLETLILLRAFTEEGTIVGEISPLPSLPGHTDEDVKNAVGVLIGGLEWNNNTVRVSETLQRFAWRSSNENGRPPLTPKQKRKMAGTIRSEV

[11] = cells; format: functional
[12] = target: Peroxisome proliferator-activated receptor gamma/Nuclear receptor coactivator 1 (Homo sapiens, UniProt P37231); assay: (§1) TR-FRET dose response biochemical High Throughput Screening assay for agonists of the steroid receptor coactivator 1 (SRC-1) recruitment by the peroxisome proliferator-activated receptor gamma (PPAR gamma): non-selective agonists. [Related pubchem assays (depositor defined):AID1300, AID1808, AID504735, AID631]; format: protein assay
[13] = target: Peroxisome proliferator-activated receptor gamma/Nuclear receptor coactivator 3 (Homo sapiens, UniProt P37231); assay: as §1, with “3 (SRC-3)” for “1 (SRC-1)”, “assays: 1301 (Confirmation screen.), 1048 (Primary screen.)]” for “assays (depositor defined):AID1300, AID1808, AID504735, AID631]”; format: functional
[14] = target: Peroxisome proliferator-activated receptor gamma/Nuclear receptor coactivator 2 (Homo sapiens, UniProt P37231); assay: TR-FRET dose response biochemical High Throughput Screening assay for agonists of the steroid receptor coactivator 2 (SRC-2) recruitment by the peroxisome proliferator-activated receptor gamma (PPAR gamma): non-selective agonists. [Related pubchem assays: 1297, 1032 ]; format: functional
[15] = target: Cytochrome P450 2D6 (Homo sapiens, UniProt P10635);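 also: CYP2D6 member of a cytochrome P450 panel assay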
Sequence of Cytochrome P450 2D6 (P10635 whole entry): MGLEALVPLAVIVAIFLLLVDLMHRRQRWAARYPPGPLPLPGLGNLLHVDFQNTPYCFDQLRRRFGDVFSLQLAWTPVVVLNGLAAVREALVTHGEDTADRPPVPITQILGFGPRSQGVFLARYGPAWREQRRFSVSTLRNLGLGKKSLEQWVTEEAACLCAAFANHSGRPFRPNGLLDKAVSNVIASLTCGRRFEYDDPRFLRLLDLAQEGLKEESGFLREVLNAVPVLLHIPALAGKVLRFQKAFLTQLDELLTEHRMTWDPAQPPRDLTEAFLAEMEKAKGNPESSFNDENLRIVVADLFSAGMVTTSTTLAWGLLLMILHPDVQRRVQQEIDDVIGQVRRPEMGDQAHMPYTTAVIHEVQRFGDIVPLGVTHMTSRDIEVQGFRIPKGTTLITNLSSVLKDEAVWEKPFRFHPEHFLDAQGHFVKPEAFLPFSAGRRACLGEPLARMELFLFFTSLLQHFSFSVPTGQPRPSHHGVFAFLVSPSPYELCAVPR

[16] = target: Sphingosine 1-phosphate receptor 1 (Homo sapiens, UniProt P21453); assay: Fluorescence-based counterscreen assay for S1P4 agonists: Cell-based dose response high throughput screening assay to identify agonists of the Sphingosine 1-Phosphate Receptor 1 (S1P1). [Related pubchem assays (depositor defined):AID1509, AID1523, AID1801, AID463107, AID463118, AID463119, AID463122, AID463123, AID463129, AID463225, AID504400, AID504460]; format: functional
Sequence of Sphingosine 1-phosphate receptor 1 (P21453 whole entry): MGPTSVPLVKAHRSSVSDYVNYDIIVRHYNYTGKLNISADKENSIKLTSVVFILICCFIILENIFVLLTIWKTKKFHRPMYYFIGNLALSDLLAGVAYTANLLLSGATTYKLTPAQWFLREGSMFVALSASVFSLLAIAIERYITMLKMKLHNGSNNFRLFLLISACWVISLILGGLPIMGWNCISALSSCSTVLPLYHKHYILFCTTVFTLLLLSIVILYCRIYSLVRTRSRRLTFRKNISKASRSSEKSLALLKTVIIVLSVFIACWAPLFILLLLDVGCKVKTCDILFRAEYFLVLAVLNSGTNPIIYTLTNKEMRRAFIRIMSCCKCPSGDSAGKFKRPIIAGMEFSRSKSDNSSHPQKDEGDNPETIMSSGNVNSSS

[17] = target: Sphingosine 1-phosphate receptor 4 (Homo sapiens, UniProt O95977); assay: Fluorescence dose response cell-based high throughput screening assay for agonists of the Sphingosine 1-Phosphate Receptor 4 (S1P4). [Related pubchem assays: 1509 (Primary screen.), 1523 (Confirmation screen in triplicates.)]; format: functional
Sequence of Sphingosine 1-phosphate receptor 4 (O95977 whole entry): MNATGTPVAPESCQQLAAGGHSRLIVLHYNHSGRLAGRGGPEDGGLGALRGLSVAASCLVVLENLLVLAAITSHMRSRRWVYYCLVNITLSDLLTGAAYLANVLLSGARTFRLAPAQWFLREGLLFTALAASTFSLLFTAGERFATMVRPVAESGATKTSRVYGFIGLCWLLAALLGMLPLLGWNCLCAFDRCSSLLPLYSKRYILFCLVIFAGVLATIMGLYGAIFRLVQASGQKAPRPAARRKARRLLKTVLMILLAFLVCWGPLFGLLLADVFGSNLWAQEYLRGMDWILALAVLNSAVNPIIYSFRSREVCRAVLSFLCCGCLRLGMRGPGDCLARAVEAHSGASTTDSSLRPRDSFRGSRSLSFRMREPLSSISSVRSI

[18] = target: T2, Delta-type opioid receptor (Homo sapiens, UniProt P41143); assay: HTS Image-Based Screen for Antagonists of the DOR Receptor. [Related pubchem assays (depositor defined):AID1777, AID1785, AID1786, AID2133]; format: functional
T2 sequence (P41143 whole entry): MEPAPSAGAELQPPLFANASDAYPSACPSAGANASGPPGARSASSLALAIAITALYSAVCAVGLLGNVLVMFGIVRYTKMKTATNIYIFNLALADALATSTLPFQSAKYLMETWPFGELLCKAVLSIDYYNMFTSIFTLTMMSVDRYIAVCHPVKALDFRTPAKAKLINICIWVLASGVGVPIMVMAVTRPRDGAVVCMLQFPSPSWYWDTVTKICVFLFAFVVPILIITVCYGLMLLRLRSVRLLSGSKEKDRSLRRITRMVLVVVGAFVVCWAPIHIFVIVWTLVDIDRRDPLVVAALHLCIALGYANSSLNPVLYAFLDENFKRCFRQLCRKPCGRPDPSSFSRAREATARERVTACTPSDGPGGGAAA

[19] = target: Mu-type opioid receptor (Homo sapiens, UniProt P35372); assay: HTS Image-Based Screen for Agonists of the MOR Receptor. [Related pubchem assays (depositor defined):AID1777, AID1785, AID1786, AID2133]; format: functional;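 also: imaging of beta-arrestin GFP recruitment into spots after receptor activation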
Sequence of Mu-type opioid receptor (P35372 whole entry): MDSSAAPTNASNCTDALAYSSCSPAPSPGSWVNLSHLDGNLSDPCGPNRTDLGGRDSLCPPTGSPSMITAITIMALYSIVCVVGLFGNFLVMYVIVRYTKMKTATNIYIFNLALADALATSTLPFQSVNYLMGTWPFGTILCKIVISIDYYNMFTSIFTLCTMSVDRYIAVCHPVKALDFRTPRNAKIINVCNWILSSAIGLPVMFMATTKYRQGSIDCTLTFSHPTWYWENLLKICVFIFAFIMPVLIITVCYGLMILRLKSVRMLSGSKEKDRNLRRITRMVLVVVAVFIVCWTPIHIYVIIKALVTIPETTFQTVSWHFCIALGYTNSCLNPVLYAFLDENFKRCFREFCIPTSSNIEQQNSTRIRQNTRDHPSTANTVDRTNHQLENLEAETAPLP

[20] = target: T2, Delta-type opioid receptor; assay: HTS Image-Based Screen for Agonists of the DOR Receptor. [Related pubchem assays (depositor defined):AID1777, AID1786, AID2133]; format: functional
[21] = target: T3, Kappa-type opioid receptor (Homo sapiens, UniProt P41145); format: functional
T3 sequence (P41145 whole entry): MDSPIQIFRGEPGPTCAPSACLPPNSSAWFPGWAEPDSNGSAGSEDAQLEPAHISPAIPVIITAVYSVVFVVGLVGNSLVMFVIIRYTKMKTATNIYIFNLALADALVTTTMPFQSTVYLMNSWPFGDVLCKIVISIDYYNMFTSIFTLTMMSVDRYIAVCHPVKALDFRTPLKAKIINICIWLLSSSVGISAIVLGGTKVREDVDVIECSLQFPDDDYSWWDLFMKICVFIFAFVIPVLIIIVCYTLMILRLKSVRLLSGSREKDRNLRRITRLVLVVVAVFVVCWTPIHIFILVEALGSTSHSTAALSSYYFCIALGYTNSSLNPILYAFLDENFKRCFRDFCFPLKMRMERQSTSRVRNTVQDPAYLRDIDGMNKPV

[22] = target: Beta-galactosidase (Escherichia coli, UniProt Q8VNN2); format: functional
Sequence of Beta-galactosidase (Q8VNN2 whole entry): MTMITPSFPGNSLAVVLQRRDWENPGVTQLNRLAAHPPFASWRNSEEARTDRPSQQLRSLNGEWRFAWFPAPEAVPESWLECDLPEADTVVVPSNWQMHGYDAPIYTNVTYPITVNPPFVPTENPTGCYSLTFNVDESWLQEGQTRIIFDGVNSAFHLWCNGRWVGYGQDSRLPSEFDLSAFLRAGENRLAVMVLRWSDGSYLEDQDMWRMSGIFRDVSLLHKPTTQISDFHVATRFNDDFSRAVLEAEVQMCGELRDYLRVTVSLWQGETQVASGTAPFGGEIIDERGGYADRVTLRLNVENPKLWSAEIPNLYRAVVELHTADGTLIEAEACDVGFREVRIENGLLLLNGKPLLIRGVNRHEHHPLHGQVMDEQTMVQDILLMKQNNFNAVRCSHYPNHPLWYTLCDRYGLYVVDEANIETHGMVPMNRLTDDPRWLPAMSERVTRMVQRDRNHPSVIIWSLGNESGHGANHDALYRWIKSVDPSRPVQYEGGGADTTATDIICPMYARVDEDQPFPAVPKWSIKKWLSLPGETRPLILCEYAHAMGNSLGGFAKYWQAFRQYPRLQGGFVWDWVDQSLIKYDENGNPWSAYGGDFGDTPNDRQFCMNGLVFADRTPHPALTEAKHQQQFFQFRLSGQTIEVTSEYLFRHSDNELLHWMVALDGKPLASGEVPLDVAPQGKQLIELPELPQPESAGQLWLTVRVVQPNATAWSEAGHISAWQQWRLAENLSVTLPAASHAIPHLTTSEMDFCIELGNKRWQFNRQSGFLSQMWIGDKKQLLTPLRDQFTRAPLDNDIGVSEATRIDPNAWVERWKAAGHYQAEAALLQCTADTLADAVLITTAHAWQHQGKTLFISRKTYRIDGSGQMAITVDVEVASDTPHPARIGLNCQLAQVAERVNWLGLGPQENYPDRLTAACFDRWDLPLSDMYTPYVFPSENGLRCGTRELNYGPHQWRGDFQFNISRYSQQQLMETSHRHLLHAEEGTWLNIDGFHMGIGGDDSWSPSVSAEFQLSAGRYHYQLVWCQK

[23] = target: T3, Kappa-type opioid receptor; format: functional; remark: listed apart in the source

T1 sequence (P98170 whole entry): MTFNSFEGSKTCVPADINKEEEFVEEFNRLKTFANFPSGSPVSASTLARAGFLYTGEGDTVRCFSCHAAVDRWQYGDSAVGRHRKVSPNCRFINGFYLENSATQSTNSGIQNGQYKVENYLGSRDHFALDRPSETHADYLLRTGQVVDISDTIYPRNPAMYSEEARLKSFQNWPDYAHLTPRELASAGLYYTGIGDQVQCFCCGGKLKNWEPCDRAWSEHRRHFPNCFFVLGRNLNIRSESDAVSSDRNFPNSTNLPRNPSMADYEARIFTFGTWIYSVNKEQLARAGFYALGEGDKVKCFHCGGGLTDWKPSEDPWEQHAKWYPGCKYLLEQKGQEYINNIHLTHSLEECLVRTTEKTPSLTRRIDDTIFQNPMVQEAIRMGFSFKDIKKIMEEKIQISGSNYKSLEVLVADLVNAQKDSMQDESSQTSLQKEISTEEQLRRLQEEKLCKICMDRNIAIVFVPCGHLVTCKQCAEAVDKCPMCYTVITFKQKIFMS

## CC1(C)CC(=O)N(CC(=O)O)c2ccccc2S1(=O)=O
[1]
  IC50: > 100 µM (inactive)
[2]
  IC50: > 100 µM (not active)

## CCOc1ccc(NC(=O)c2ccccc2OCC(=O)c2ccccc2)cc1
[3]
  IC50: 1.74 µM (active)

## Cc1ccc(N(C)C(=O)c2cc(S(=O)(=O)N3CCc4ccccc43)cn2C)cc1
[3]
  IC50: 0.769 µM (active)

## COCc1cc(O)nc(Nc2nc3ccccc3o2)n1
[4]
  EC50: 2.21 µM (active)
[5]
  CC50: 16 µM (active)
[6]
  EC50: 9.09 µM (active)
[7]
  CC50: 19.4 µM (active)
[8]
  CC50: 16.8 µM (active)
[9]
  CC50: 7.52 µM (active)
[10]
  IC50: 10.8 µM (active)
[11]
  IC50: 1.85 µM (active)

## O=C1C=C(c2cccs2)CC(c2cccs2)C1n1cnc([N+](=O)[O-])c1 (centres undefined)
[12]
  EC50: 18.5 µM (inactive)
[13]
  EC50: > 79.4 µM (not active)
[14]
  EC50: 20.7 µM (not active)
[15]
  AC50: 15.8 µM (inconclusive)

## Cn1c(SCC(=O)c2ccc3c(c2)OCO3)nnc1C1COc2ccccc2O1 (centres undefined)
[16]
  EC50: > 49.8 µM (inactive)
[17]
  EC50: > 49.8 µM (not active)

## Cc1cccc(C(=O)NC2CC3CCCC(C2)N3Cc2ccccc2)c1 (centres undefined)
[18]
  IC50: > 32 µM (inactive)
[19]
  EC50: > 32 µM (inactive)
[20]
  EC50: > 32 µM (inactive)
[21]
  IC50: 15.7 µM (active)
[22]
  EC50: > 31.5 µM (inactive)
[23]
  IC50: 19.9 µM
